Experiments:
blood lymphocytes = test: Confirmation test for reduction effects on the number of lymphocytes; assay type: in vivo, Male Sprague-Dawley rats; conditions: rat, oral; for Number of lymphocytes (% of Vehicle) After 6 hours: 6 hours after administration; for Number of lymphocytes (% of Vehicle) After 24 hours: 24 hours after administration; for Number of lymphocytes (% of Vehicle) After 48 hours: 48 hours after administration
Procedure: Confirmation Test for Reduction Effects on the Number of Lymphocytes
Reduction effects on the number of blood lymphocytes by test compounds were confirmed using Male Sprague-Dawley rats (Japan SLC, 7-weeks-old in use). Administration solutions for test compounds were prepared on hot-plate at 50° C. After test compounds were dissolved by DMSO (dimethyl sulfoxide, Wako Pure Chemicals) of 1/10 volume of the total volume, WellSolve (Celeste) of 1/10 volume of the total volume was added to this solution. Further, distilled water (Otsuka Pharmaceutical Factory) of 8/10 volume of the total volume was added to this solution, and the administration solutions for test compounds were prepared. A solution, prepared in the same volume ratios of DMSO. WellSolve and distilled water as the administration solution for test compounds, was used as a solvent (Vehicle). Vehicle or test compound was administered orally to rats at 1 mL/body. After 6, 24 and 48 hours from administration of vehicle or test compounds, rats were held on the board at supine position under inhalation anesthesia with isoflurane (Abbott Japan). Blood samples (200 to 250 μL) were collected from the cervical vein of this rat using 1 mL syringes with needles of 25G. The collected blood samples were transferred to a microtube treated with EDTA-2K (Japan Becton Dickinson), and stored at room temperature after gently mixing with inversion. The number of lymphocytes was measured by ADVIA (registered mark) (Bayer), which is a multi-parameter automated blood cell counter using this blood samples. The average number of lymphocytes in vehicle-treated group (vehicle group) was defined as 100%, and the average number of lymphocytes in each test compound-treated group was calculated as % of vehicle. As Comparative Example 2, 1-{5-[1-(4-chloro-3-methyl-phenyl)-propylamino]-2-methyl-benzyl}-azetidine-3-carboxylic acid (patent literature 1, Example 4) was evaluated as well.

[1] = tested on: Naïve T cells-transferred colitis model; test: Drug efficiency evaluation in naïve T cells-transferred colitis model; assay type: in vivo; conditions: SCID mice, mean ± standard error; for Body weight change ratio (%): oral twice a day from day 15, 15 mg/kg, day 30; for Colon weight (%) / DAI score (%): oral twice a day, 15 mg/kg, vehicle group = 100%
Procedure: The Drug Efficiency Evaluation in Naïve T Cells—Transferred Colitis Model
(1) Purification of CD45RB Positive Naïve T Cells and Transfer the Cells into SCID Mice
After female BALB/c mice (Charles River Japan, 8-weeks-old in use) were sacrificed by blood removal from cervical vein under inhalation anesthesia with isoflurane spleens were harvested from these mice. Spleens were washed with ice-cold PBS (phosphate buffered saline, Invitrogen) and stored in 50 mL tube containing PBS on ice. Spleens stored on ice were mashed with the upper portion of slide glasses inside a biological safety cabinet, and filtered through a cell filter (pore size 70 μm), and the filtrate was centrifuged at 500×g, room temperature for 5 minutes. After the supernatant was removed, 12 mL of RBC lysis buffer (Biolegend) was added to a cell pellet and it was resuspended and left for about 3 minutes. The supernatant was removed after centrifugation and the hemolytic process was performed by repeating same procedure once again.
The cells were purified with Mouse Naive T cell CD4^+/CD62L^+/CD44^low Colum Kit (R&D systems). The cells performed with the hemolytic process, were suspended by column buffer attached to the above Column Kit, and purified through a cell filter (pore size 70 μm) after centrifugation at 500×g, room temperature for 5 minutes. The cells were resuspended with column buffer, and antibody cocktails attached to the above Column Kit were added to this and mixed. After that, the cells were purified according to the protocol of the Column Kit.
Next, purification of CD45RB positive cells was performed by MACS (registered mark) separator (Miltenyi Biotec). The purified cells were suspended with 2 mL of PBS containing 0.5% BSA, and reacted at room temperature for 15 minutes after adding FITC (fluorescein isothiocyanate)-labeled anti-CD45RB antibody (Biolegend). After washing two times with PBS containing 0.5% BSA by centrifugation, the cells were resuspended with 2 mL of PBS containing 0.5% BSA and reacted at room temperature for 10 minutes after adding anti-FITC microbeads (Miltenyi Biotec). After washing one time with PBS containing 0.5% BSA by centrifugation, the cells were resuspended with 3 mL of PBS containing 0.5% BSA, and a fraction of CD45RB positive cells was purified according to the protocol of MACS (registered trademark) separator. In the process of elution after detached from MACS (registered trademark) separator, the cells were separated with 5 mL of PBS. The cell suspension was washed one time by centrifugation with PBS, resuspended by appropriate PBS and measured the cell number as naïve T cells suspension for transfer. Female CB17/Icr-scid/scid Jcl (SCID mice) (Charles River Japan, 8-weeks-old in use) were induced colitis by intraperitoneal administration of 500 μL (divided into 250 μL two times) of naïve T cells suspension prepared at 6×10^5 cells/mL by PBS.
(2) Measurement of Body Weight and Procedure for Administration of Drugs
Body weights were measured at day 1, 8 and 15 as day 0 when naïve T cells were transferred to mice. Mice were grouped evenly, based on body weight change at day 15. The measurement of body weight was performed two times a week after day 15. A solvent (Vehicle) and test compounds were administered twice a day from the evening of day 15. The administration solution was prepared as indicated below. Firstly, 0.5% methyl cellulose (Wako pure chemicals) of 1/10 volume of total volume was added to test compound, and a suspension was prepared by sonication. […] After that, administration solutions for test compounds were prepared by sonication while adding distilled water of 9/10 volume of total volume to these suspensions in several batches. A solution prepared in the same volume ratios of 0.5% methyl cellulose and distilled water as administration solutions for test compounds was used as vehicle. Administration solutions for vehicle or test compounds were orally administered to mice at 5 mL/kg.

Compound | Number of lymphocytes (% of Vehicle) After 6 hours (blood lymphocytes; 10 mg/kg) | Number of lymphocytes (% of Vehicle) After 24 hours (blood lymphocytes; 10 mg/kg) | Number of lymphocytes (% of Vehicle) After 48 hours (blood lymphocytes; 10 mg/kg) | Body weight change ratio (%) [1] | Colon weight (%) [1] | DAI score (%) [1] | Number of lymphocytes (% of Vehicle) After 6 hours (blood lymphocytes; 1 mg/kg) | Number of lymphocytes (% of Vehicle) After 24 hours (blood lymphocytes; 1 mg/kg) | Number of lymphocytes (% of Vehicle) After 48 hours (blood lymphocytes; 1 mg/kg)
CCN(c1ccc(Cl)c(C)c1)C(C)c1ccc(C)c(CN2CC(C(=O)O)C2)c1 (stereo not drawn) [Compound 2-6, 1-(5-{1-[(4-Chloro-3-methylphenyl)(ethyl)amino]ethyl}-2-methylbenzyl)azetidine-3-carboxylic acid] | 9.9 % of Vehicle | 14.1 % of Vehicle | 65.7 % of Vehicle | 1.7 ± 1.1 % | 36.8 ± 17.1 % | 24.3 ± 11.8 % | – | – | –
CCN(c1ccc(Cl)c(C(F)(F)F)c1)C(C)c1ccc(C)c(CN2CC(C(=O)O)C2)c1 (stereo not drawn) [Compound 2-7, 1-(5-{1-[(4-Chloro-3-trifluoromethylphenyl)(ethyl)amino]ethyl}-2-methylbenzyl)-azetidine-3-carboxylic acid] | 10.9 % of Vehicle | 10.6 % of Vehicle | 13.2 % of Vehicle | 1.6 ± 1.2 % | 32.4 ± 14.2 % | 22.1 ± 14.8 % | 15.0 % of Vehicle | 11.1 % of Vehicle | 66.8 % of Vehicle

Source: patent publication US9718771B2, “Aniline derivative, pharmaceutical composition containing same, and use thereof” (Kissei Pharmaceutical Co., Ltd., priority 2014, dated 2017)
